Experimental data published in patent US5453417A, “Process for the phosphorylation of insulin and product produced thereby” (The Hospital for Sick Children, priority 1991, dated 1995).

Experiments:
Type in all cases: in vivo, dog
[1] = system: diabetic (pancreatectomized) dogs; assay: continuous insulin infusion at Max Rate and reduced rates, plasma glucose plateau under fasting conditions
Experimental: The initial step in the protocol involved determining the required insulin infusion rate of either regular or phosphorylated insulin that would, under fasting conditions, reduce plasma glucose from normal at 7:30 a.m. to a plateau of 60 mg %, 2-4 hours later. […] The rate that produced this reduction of blood glucose to 60 mg % was termed "Max Rate".
On subsequent days, identical experiments were conducted on all 4 diabetic dogs with the exception that the animals received a reduced rate of insulin infusion equal to either 1) 62% of the "Max Rate" as shown in FIG. 6 or 2) 36% of the "Max Rate" as shown in FIG. 7.
In this test, the dogs infused with regular insulin reached a glucose threshold of 180 mg % (renal threshold at which the kidneys begin to spill glucose into the urine). The phosphorlated infused dogs reached a lower average glucose level of 120-130 mg %.
All protocols described were conducted in triplicate on all dogs.

[2] = system: normal, fasted, beagle dogs; assay: intravenous bolus, rate of decline of plasma glucose in 15 minutes following the injection; conditions: i.v. bolus, phosphorylated insulin = product of Example 2
Experimental: Phosphorylated insulin produced by the process described in Example 2 and regular insulin (Iletin II pure Pork) were injected as an intravenous bolus into 4 normal, fasted, beagle dogs. Each insulin was injected at a wide range of dosage with not more than one experiment on each dog on any given day. The plasma glucose of each dog was measured (YSI) at 2 minute intervals for 15 minutes following the injection and the rate of decline of glucose from normal was determined in this period for each individual insulin dose. When the data from FIG. 8 are analysed, it can be shown that the % change in insulin dose required to produce a given increase in glucose drop (glucose disposal) is greater for phosphorylated than for regular (unmodified) insulin. Thus, for example, in Table 4, a 28% increase in dose of regular insulin from that which produced a glucose drop of 3.5 mg %/min., caused the "rate of drop of glucose" to increase from 3.5 to 4.0 mg %/min. A 66 % increase in dose of phosphorylated insulin was required to produce the same effect.

[3] = system: diabetic dogs; assay: continuous 24 hour infusion, increase of infusion rate needed to lower 8 a.m. fasting plasma glucose; conditions: two diabetic dogs, phosphorylated insulin = product prepared as Example 6 (FIG. 12)
Experimental: Two diabetic dogs were fed a single daily meal of 1100 kcal at 2:00 p.m. daily and given regular (i.e. fast acting) insulin at meal time.
In addition, dogs were infused continuously, 24 hours per day with either regular or phosphorylated insulin (product prepared as example 6).
During repeated experiments the minimum insulin infusion rate required to produce a mean 8 a.m. fasting plasma glucose of 95 mg % was determined for each insulin.

regular insulin: regular (unmodified) insulin, fast acting; Iletin II pure Pork in Example 32 [reference compound]
plasma glucose plateau ([1]; infusion at Max Rate, fasting, last 2 hours, phosphorylated insulin = product of Example 3, 4 diabetic dogs (FIG. 5)): 60 mg % | average glucose level reached ([1]; infusion rate reduced to 36% of Max Rate, phosphorylated insulin = product of Example 3 (FIG. 7)): 180 mg % | average plasma glucose plateau ([1]; infusion rate reduced to 62% of Max Rate, phosphorylated insulin = product of Example 3 (FIG. 6)): 150 mg % | Required % Increase In Insulin Dose ([2]; change in rate of drop of glucose from 1.0 to 1.5 mg %/min): 49% | Required % Increase In Insulin Dose ([2]; change in rate of drop of glucose from 1.5 to 2.0 mg %/min): 33% | Required % Increase In Insulin Dose ([2]; change in rate of drop of glucose from 2.0 to 2.5 mg %/min): 25% | Required % Increase In Insulin Dose ([2]; change in rate of drop of glucose from 2.5 to 3.0 mg %/min): 20% | Required % Increase In Insulin Dose ([2]; change in rate of drop of glucose from 3.0 to 3.5 mg %/min): 39% | Required % Increase In Insulin Dose ([2]; change in rate of drop of glucose from 3.5 to 4.0 mg %/min): 28% | Required % Increase In Insulin Dose ([2]; change in rate of drop of glucose from 4.0 to 4.5 mg %/min): 34% | increase of insulin infusion rate required to drop the fasting glucose from 95 to 70 mg % [3]: 20%
